Results on 1 molecule are retold here after patent US20180135134A1, “TARGETED SELECTION OF PATIENTS FOR TREATMENT WITH CORTISTATIN DERIVATIVES” (President and Fellows of Harvard College, priority 2015, published 2018).

In one test the test system is NB4. As to the kind of experiment: Cellular proliferation assay (CellTiter-Glo). As to conditions: Homo sapiens, NB-4. A general note: ATP-based viability assays read luminescence as a measure of living cells.
The test system of a further test is U87MG. As to the kind of experiment: Soft agar growth assay (Alamar Blue). The conditions noted are these: Glioma, Inactivating mutations in ETV1, FLL1 and SMC3, 100 nM cortistatin A. In general terms: The colour change of resazurin is a common sign of viable cells or microbes.
The next test relates to HCT116. Briefly: Cellular proliferation assay (CellTiter-Blue, day 7). The conditions noted are these: Homo sapiens, HCT-116.
The target of a further test is T1, CDK8/Cyclin C (Homo sapiens, UniProt P49336).
T1 construct: purchased ProQinase GmbH
T1 sequence (P49336 whole entry): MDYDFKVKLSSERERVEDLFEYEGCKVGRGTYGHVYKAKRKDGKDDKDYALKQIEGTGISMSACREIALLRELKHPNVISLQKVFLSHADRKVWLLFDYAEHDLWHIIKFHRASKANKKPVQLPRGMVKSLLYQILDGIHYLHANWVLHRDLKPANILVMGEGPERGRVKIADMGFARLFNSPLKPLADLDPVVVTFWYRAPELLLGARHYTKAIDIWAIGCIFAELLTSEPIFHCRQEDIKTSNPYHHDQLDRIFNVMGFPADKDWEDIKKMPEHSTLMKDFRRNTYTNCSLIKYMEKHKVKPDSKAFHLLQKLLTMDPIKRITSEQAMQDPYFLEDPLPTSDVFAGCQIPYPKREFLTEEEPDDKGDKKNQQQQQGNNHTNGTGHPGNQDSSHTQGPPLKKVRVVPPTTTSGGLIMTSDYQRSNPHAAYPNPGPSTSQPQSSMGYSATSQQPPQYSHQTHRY
T1 sequence (P24863 whole entry partner): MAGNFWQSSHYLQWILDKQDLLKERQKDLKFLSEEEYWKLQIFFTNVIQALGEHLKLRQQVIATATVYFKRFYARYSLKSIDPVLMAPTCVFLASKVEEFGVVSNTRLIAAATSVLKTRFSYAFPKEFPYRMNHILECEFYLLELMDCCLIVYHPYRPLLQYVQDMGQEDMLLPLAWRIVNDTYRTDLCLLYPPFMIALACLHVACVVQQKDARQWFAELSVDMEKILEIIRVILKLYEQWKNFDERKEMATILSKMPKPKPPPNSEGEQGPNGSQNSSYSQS
Briefly: In vitro radiometric protein kinase assay (PanQinase). Type of test: biochemical. As to conditions: FIG. 8.

The subject of a further test is HCC827. Briefly: Soft agar growth assay (Alamar Blue). The conditions noted are these: Non small cell lung carcinoma, EGFR mutation, 100 nM cortistatin A.
The test system of another test is ALL-SIL. Briefly: Cellular proliferation assay (CellTiter-Glo). The conditions noted are these: Homo sapiens.
The subject of test [1] is RUNX1 target genes including CEBPA, IRF8 and NFE2. Briefly: Gene expression in CA-sensitive cell lines SET-2, MOLM-14 and MV4;11. Type of test: cell-based, human. As to conditions: SET-2, MOLM-14 and MV4;11 cell lines. How it is done: Leukemia cells were plated (12-well) in triplicate at 500,000-800,000 cells per ml and incubated in the presence of vehicle (0.1% DMSO) or CA (25 nM 3 h for K562, MOLM-14 and MV4;11; 10 nM 24 h for MOLM-14; 25 nM 4 h for SET-2, n=3 for each cell line). Cells were then washed twice with cold PBS, and snap frozen. RNA was isolated (RNeasy Plus Microkit, Qiagen or TRIzol, Life Technologies), processed, and, for K562, MOLM-14 and MV4;11, hybridized to the Human U133 Plus 2.0 microarray (Affymetrix). Microarrays were processed with Bioconductor packages affyQCReport for quality control and affy for background correction, summarization, and normalization using rma. […] SET-2 and HCT 116 gene expression was measured by RNA-seq. […] Reads were aligned in two passes, first with rnaStar (v.2.3.0e) then with BWA (v.0.7.5a) for remaining unmapped reads, both using default parameters. Mapped reads were merged and counted using HTSeq (v.0.5.3p3) with -s yes -m intersection-strict. […] Samples were run in a single lane on an Illumina HiSEQ 2000 sequencer with a single read flow cell using 1×50-bp reads and a 6-cycle index read. Reads were mapped to the hgl9 reference genome using Tophat2 v.2.0.6 with custom settings including the setting of—library-type fr—firstrand to appropriately account for the stranded nature of the protocol. […]

A further test deals with T47D. As to the kind of experiment: Soft agar growth assay (Alamar Blue). The conditions noted are these: Breast cancer, ER-alpha positive, 100 nM cortistatin A.

Protocol for ALL-SIL: All suspension cells were plated (96-well) in triplicate at 5,000-30,000 cells per well for testing (n=3). Viable cell number was estimated after 3, 7 and 10 days by counting viable cells from one vehicle well, generating a cell dilution series, transferring 20 ml per well in duplicate to a 384-well plate, and performing a linear regression to CellTiter-Glo (Promega) response (SPECTRAmax M3, Molecular Devices). Cells from all wells were also fourfold diluted in media and transferred in duplicate for CellTiter-Glo measurement. On days 3 and 7, an equal volume for all wells was split-back with fresh media and compound, such that the resulting cell density for the vehicle well matched the initial seeding density. For days 7 and 10, estimated cell number represents the split-adjusted theoretical cell number. […] For growth assays with inhibitors, n=3 for each concentration with two independent experiments.
Description for CDK8/Cyclin C: A radiometric protein kinase assay was used (PanQinase activity assay; performed by ProQinase GmbH) as described (Hutterer, C. et al. Antimicrob. Agents Chemother. 59, 2062-2071 (2015)).
Protocol for HCC827: (§1) For the 62 cell lines 96 well suspension cell culture plates were prepared. 100 μL of the soft agar bottom layer (0.6% final concentration in complete medium) was poured and left to solidify. 50 μL of the soft agar top layer (0.4% final concentration) containing the corresponding cells and cell number were then added on top, solidified and incubated at 37° C., 10% CO2. After the soft agar had solidified, the test items were added at indicated final concentrations into the inner wells of the plate. Subsequently, the assay was incubated in cell culture incubators for 8 to 14 days. Finally, the assay was developed using Alamar Blue and upon 1-5 h of incubation at 37° C. fluorescence intensity was determined (excitation: 560 nm; emission: 590 nm). As low control, cells were treated with 1E-05M Staurosporine (6fold values). As high control, cells were treated with 0.1% DMSO (solvent control, 6 fold values).
(§2) Raw data were converted into percent soft agar growth relative to high controls (solvent 0.1% DMSO) and low controls (1E-05M Staurosporine), which were set to 100% and 0%, respectively.
Protocol for HCT116: (§3) All suspension cells were plated (96-well) in triplicate at 5,000-30,000 cells per well for testing (n=3). Viable cell number was estimated after 3, 7 and 10 days by counting viable cells from one vehicle well, generating a cell dilution series, transferring 20 ml per well in duplicate to a 384-well plate, and performing a linear regression to CellTiter-Glo (Promega) response (SPECTRAmax M3, Molecular Devices). Cells from all wells were also fourfold diluted in media and transferred in duplicate for CellTiter-Glo measurement. On days 3 and 7, an equal volume for all wells was split-back with fresh media and compound, such that the resulting cell density for the vehicle well matched the initial seeding density. For days 7 and 10, estimated cell number represents the split-adjusted theoretical cell number. HCT116 were plated (96-well) in triplicate at 250 cells per well. Cells were incubated in the presence of vehicle, 1 μM paclitaxel, or compound. On day 7, CellTiter-Blue (Promega) response was measured and values were normalized to vehicle (100% growth) and paclitaxel (0% growth). For growth assays with inhibitors, n=3 for each concentration with two independent experiments.
Protocol for NB4: as §3
Protocol for T47D: as §1, §2
Protocol for U87MG: as §1, §2

As to `CN(C)[C@H]1C[C@@]23CC[C@@]4(O2)C(=CC[C@]2(C)[C@@H](c5ccc6ccncc6c5)CC[C@H]24)C=C3[C@@H](O)[C@@H]1O` [Cortistatin A, cortistatin A], the GI50 with NB4 is more than 1000 nM; in the test with HCT116, more than 1000 nM; with ALL-SIL, 2 nM. In addition, the figures for the “% growth rel. to vehicle” value with U87MG, in the test with HCC827 and in the test on T47D were 36%, 23% and 48%, respectively. In addition, the “inhibition of CDK8/Cyclin C kinase activity” value on CDK8/Cyclin C was “potently inhibits CDK8/Cyclin C”. Besides, the “expression of RUNX1 target genes” value in test [1] is “upregulated RUNX1 target genes”.

One may read the GI50 as the concentration that inhibits growth by half. A higher GI50 goes with lower sensitivity of the cells.
